Reference: a melting point compilation (Tetko et al.; mined from patent text by program, amines drawn as free bases though some values may be those of a salt)

SMILES | melting point [°C]
N=C(N)NCCCC(NC(=O)CCS)C(=O)O (stereo not drawn) | 230
CN(C)/C(=C1/Sc2ccccc2C1=O)c1ccccc1 | 179 to 180
O=C(NC(CN1CCC(=C2c3ccccc3CCc3ccccc32)CC1)C(=O)O)OCc1ccccc1 (stereo not drawn) | 150 to 152
OCC1(CO)C=CC(c2ccccc2)=CC1 | 187 to 188
Cc1c(-c2ccc(N)cc2)[nH]c2nccnc12 | 330 to 332
COc1ccc(Cl)c(Oc2c(Cl)nc(C)nc2Cl)c1 | 125 to 130
CCNC1=NN(c2ccc(Cl)cc2)CC1C (stereo not drawn) | 63 to 64
Cn1c2ccc(Cl)cc2c2cc(C(=O)O)sc21 | 259 to 262
CC1(CO)CCC2(CC1)OCCO2 | 42 to 43
O=C1NCC2(CCN(CC(O)COc3cccc4ccccc34)CC2)O1 (stereo not drawn) | 137 to 140
COc1cc2c(=O)n(CCN3CCN(C)CC3)c3c4cc5c(cc4ncc3c2cc1OC)OCO5 | 244 to 246
NS(=O)(=O)c1cccc(-c2cc(-c3nc(-c4ccc(C(F)(F)F)nc4)cc(C(F)F)n3)ccn2)c1 | 264
COC(=O)CCC#Cc1cc(Cl)ccc1[N+](=O)[O-] | 75 to 78
OC(CNCC(O)C1CCc2ccccc2O1)C1CCc2ccccc2O1 (stereo not drawn) | 131
N#CC1(Nc2ccccc2)CCN([C@@H]2CC[C@H]3CCCc4cccc2c43)CC1 (racemic) | 142
CN(C)S(=O)(=O)C(Br)(Br)S(=O)(=O)c1ccccc1 | 144 to 145
CC(C)c1cccc(C(C)C)c1NC(=O)CC1c2ccccc2Oc2ccccc21 | 231 to 232
Clc1nc(C(c2ccccc2)(c2ccccc2)n2ccnc2)nc(Cl)c1Cl | 142 to 146
CCCCNc1nc(C)cc(Cl)n1 | 35 to 36
CNC(=O)CCC(=NNC(N)=S)c1ccccc1 | 205 to 207
Nc1nc(=Nc2ccccc2)n2c(n1)sc1ccccc12 | > 250

SMILES | melting point [°C]
CCCc1nn(C)c(C(N)=O)c1NC(=O)c1cc(S(=O)(=O)N2CCN(C)CC2)ccc1OCC | 204 to 206
O=C(O)c1ccccc1C(=O)NCCN1CCN(CCOC(c2ccccc2)c2ccccc2)CC1 | 45
Cc1cc(C)c2ncc(NC(=O)C=Cc3cc(C)c(O)c(C)c3)c(-c3ccccc3Cl)c2c1 | 249 to 251
Oc1ccc(/C(=C(\c2ccccc2)C(F)(F)F)c2ccccc2)cc1 | 113 to 120
CCn1ncc(C(=O)c2ccc(S(C)(=O)=O)c(Cl)c2Cl)c1O | 198 to 200
O=C(c1ccccc1)c1cc2ccncc2n1S(=O)(=O)c1ccccc1 | 145 to 146
Cc1oc(-c2ccccc2)nc1COc1cc(COc2ncccc2C#N)on1 | 139 to 140
O=C1CCS(=O)(=O)C(CC(=O)c2ccccc2)C1 (stereo not drawn) | 158 to 159
CC(C)C1NC(=O)[C@H](CS)NC1=O (stereo partly drawn) | > 275
CS(=O)(=O)c1ccc(-c2cnn(-c3ccc(F)c(Cl)c3)c(=O)c2-c2ccc(Cl)cc2)cc1 | 205
Cc1ccc(C(=O)O)c(S(C)(=O)=O)c1 | 174
CN(c1cccc2cc(C3=NCC(CCN4C(=O)CCC4=O)S3)[nH]c12)S(=O)(=O)c1cccs1 (stereo not drawn) | 189 to 191
CCCCC(=O)Nc1ccc([N+](=O)[O-])cc1Cl | 80 to 95
OCC1OC(n2cc(Cc3ccc(C4CC4)cc3)c3c(F)cccc32)C(O)C(O)C1O (stereo not drawn) | 110 to 112
ClCc1cnc(SCc2ccccc2)s1 | 57 to 61
COC(=O)Cn1c(C(=O)O)cc2ccccc21 | 190
CCC(=O)N1CCC(NC(=O)Nc2c(Cl)cccc2Cl)CC1 | 170 to 174
CN(C)c1ccc2c(c1)SSSSS2 | 122
Cn1ncc(Cl)c(NCCN2CCC(c3noc4cc(F)ccc34)CC2)c1=O | 108 to 109
O=C(NS(=O)(=O)NCCc1ccccc1)OCc1ccccc1 | 120 to 121
CS(=O)(=O)c1ccc(/C(=C2\CCSC2=O)c2ccc(Cl)cc2)cc1 | 183

SMILES | melting point [°C]
Cc1c(NC(=O)c2cc3c(s2)C(=O)CCC3)cccc1-c1cn(C)c(=O)c(Nc2ccc(C3C(=O)N(C)CCN3C)cc2)n1 (stereo not drawn) | 154 to 155
O=C(O)c1cnn2c(C(F)F)cc(-c3ccc(Cl)cc3)nc12 | 232
CCCCCCCCCCCCCCCCCNC(=O)Oc1cccc([N+](=O)[O-])c1 | 66 to 73
CC(=O)N1CCC(Oc2ccc(N3CCOCC3)cc2)CC1 | 208 to 209
N#Cc1ccc(-c2cn(-c3ccc(I)cc3)c(SCc3ccncc3)n2)cc1 | 155 to 162
Cc1c(-c2ccc([N+](=O)[O-])cc2)sc2[nH]c(=O)n(-c3ccccc3)c(=O)c12 | > 300
COc1ccc(Br)c(O)c1C(=O)O | 143 to 144
Fc1cc(N2CCN(C3CCN(c4cccc5cccnc45)CC3)CC2)c2ncccc2c1 | 211
N#CCC(O)(c1ccccc1)c1ccccc1 | 136 to 138
O=C1NC(N2CCCCC2)=N/C1=C\c1c[nH]c2ncc(Cl)cc12 | 315 to 320
CCC(=O)Nc1nc(N[C@H]2c3cc(C)ccc3C[C@@H]2C)nc(C(F)F)n1 | 66
COc1ccc2c(c1)CCC([C@@H]1CC[C@H](O)[C@@]1(C)CCO)C2 (stereo partly drawn) | 151 to 153
CC(C)OC(=O)c1cc(OC(C)C)ccc1[N+](=O)[O-] | 45 to 50
Cc1nc(C)c(CC(=O)O)c(-c2ccccc2)c1CC(=O)O | 137 to 138
CS(=O)(=O)c1nnc(C(F)(F)F)s1 | 84
COc1cc2c(c(Cl)c1Cl)C(=O)C(C)(c1ccc(F)cc1)C2 (stereo not drawn) | 163 to 170
Cc1nnc2n1-c1ccc(Cl)cc1C(c1ccccc1)N2 (stereo not drawn) | 262 to 265
Cc1cccc(C)c1CO | 84
O=C(CN1CCC(Cc2ccccc2)CC1)Nc1ccc2cn[nH]c2c1 | 165 to 169
CCC(C)(C)Nc1c(NCc2cc(C)ccc2C)c(=O)c1=O | 199 to 200

Other lines, results leading:

melting point [°C] | SMILES
124 to 127 | CCC(Oc1ccc2ccccc2c1)C(=O)OC1CC(O)C=C2C=CC(C)C(CCC3CC(O)CC(=O)O3)C21 (mixture of isomers)
164 to 166 | Cc1cc(Br)cnc1CCCCNc1ncc(Cc2cccnc2)cc1O
> 220 | CCOC(=O)NN(C(=O)OCC)C1(c2ccc3c(c2)OCO3)C(=O)N(Cc2ccc(Cl)cc2)c2ccccc21 (stereo not drawn)
124 | CC(C)c1ccc(S(=O)(=O)Nc2ncc(C(F)(F)F)cc2I)cc1
172 to 173 | CC(=O)CC(=S)SCc1cn(C(c2ccccc2)(c2ccccc2)c2ccccc2)nn1
> 275 | Cc1ccc(C(=O)Nc2nc(-c3ccccc3)c(-c3nc4ccccc4c(=O)n3-c3ccc(Cl)cc3)s2)cc1
78 | O=C(O)CCOc1cccc(CCNC(=O)C2Cc3ccccc3N2S(=O)(=O)c2ccc(-c3cccc(C(F)(F)F)c3)cc2)c1 (stereo not drawn)
183 to 185 | CC(C)C(=O)Oc1ccc2c(c1)-c1ncc(C(=O)O)c(=O)n1CC2
151 to 152 | COc1ccc(Cl)cc1C(=O)NC1COc2cc(C)ccc2C1O (stereo not drawn)
82.6 to 83.4 | COc1ccc(SCCNC(=O)c2ccc(OCC=C(C)CCC=C(C)C)cc2)nc1
195 to 196 | CCOC(=O)c1c(OC(C)=O)c2ccccc2c2nc3ccccc3nc12
150 to 151 | COc1cccc(CCc2c(CCNC(=O)CCCCC(=O)NCCc3ccccc3)ccc(OC)c2OC)c1
149 to 150 | O=C(NCCO)c1cccc(-c2ccc3c(c2)N(Cc2cc(Cl)ccc2Cl)CC3)c1
92 to 93 | Cc1ccc(C(=O)c2ccc(SCCO)cc2)cc1C
135 to 137 | COc1cc(C=C(C(C)=O)C(C)=O)ccc1O
105 to 110 | CN(C)c1ccc(S(=O)(=O)NCCCCC(=O)O)cc1
92 to 95 | CCCCOc1cc(CCS(=O)(=O)NC(=O)OCc2ccccc2)n(Cc2ccc(Cl)cc2Cl)n1
119 to 120 | COCc1c(C(=O)OC(C)C)ncc2[nH]c3cccc(Oc4ccc(Cl)cc4)c3c12

melting point [°C] | SMILES
130 | O=C(O)c1ccc(NCCNC(=O)C2Cc3ccccc3N2S(=O)(=O)c2ccc(-c3cc(C(F)(F)F)ccc3Cl)cc2)cc1 (stereo not drawn)
218 | O=C(O)CCCCCNC(=O)c1cccc2c(=O)c3ccccc3[nH]c12
235 to 237 | CCNc1nc(C)c(-c2ccnc(Nc3cc(OC)cc(OC)c3)n2)s1
> 260 | N=C(N)c1ccc(N2CCN(c3ccc(S(=O)(=O)CC(=O)O)cc3)C2=O)cc1
123 to 124 | CCOC(=O)CCc1cn(-c2ccccc2)nc1OCc1ccccc1
84 to 88 | COC(=O)C[C@@H](CI)O[Si](c1ccccc1)(c1ccccc1)C(C)(C)C
192 to 194 | CCCCCC(=O)NCc1nc(-c2ccc3c(c2)Nc2ccccc2S3)cs1
152 | COC(=O)c1c(Sc2ccc(OC)cc2)nc(C)n1Cc1cc2c(cc1Cl)OCO2
197 to 199 | CC(C)CC(=O)Nc1c(C(=O)c2cccc(Cl)c2)[nH]c2ccc([N+](=O)[O-])cc12
47 | N#Cc1ccc(OCCCCCCl)cc1
206 | CCC(=O)OCC(OC(=O)CC)c1nc2c(C(F)(F)F)cccc2c(O)c1C(=O)Nc1nccs1 (stereo not drawn)
139 to 141 | CCOC(=O)c1cccc2c1Nc1ccc(C(=O)c3ccccc3)cc1N2C
187 to 189 | COC(=O)c1ccccc1NC(=O)c1cnc(S(C)(=O)=O)nc1
215 | NC(Cc1nc2cc3ccccc3cc2nc1CP(=O)(O)O)C(=O)OCc1ccccc1 (stereo not drawn)
134 to 135 | CC(C)(C)OC(=O)NC(Cc1ccccc1)C(O)C(N)Cc1ccccc1 (stereo not drawn)
124 to 125 | COc1ccc(CNc2nc(SC)ncc2C=O)cc1Cl
220 to 223 | COCC(COC)N1CCc2cc(Nc3ncc(Cl)c(Nc4ccc(C(N)=O)cc4OC)n3)c(OC)cc2CC1
> 350 | O=c1[nH]c2cc(Cl)ccc2c(O)c1-c1ccc(OCc2ccccc2)cc1
